{"source": "ChEMBL document CHEMBL1130848", "about": "“Synthesis and preliminary evaluation of (S)-2-(4'-carboxycubyl)glycine, a new selective mGluR1 antagonist” (Bioorg Med Chem Lett, 1998)", "key": {"[1]": {"molecular_target": "Metabotropic glutamate receptor 2 (Homo sapiens, UniProt Q14416)", "sequence (Q14416 whole entry)": "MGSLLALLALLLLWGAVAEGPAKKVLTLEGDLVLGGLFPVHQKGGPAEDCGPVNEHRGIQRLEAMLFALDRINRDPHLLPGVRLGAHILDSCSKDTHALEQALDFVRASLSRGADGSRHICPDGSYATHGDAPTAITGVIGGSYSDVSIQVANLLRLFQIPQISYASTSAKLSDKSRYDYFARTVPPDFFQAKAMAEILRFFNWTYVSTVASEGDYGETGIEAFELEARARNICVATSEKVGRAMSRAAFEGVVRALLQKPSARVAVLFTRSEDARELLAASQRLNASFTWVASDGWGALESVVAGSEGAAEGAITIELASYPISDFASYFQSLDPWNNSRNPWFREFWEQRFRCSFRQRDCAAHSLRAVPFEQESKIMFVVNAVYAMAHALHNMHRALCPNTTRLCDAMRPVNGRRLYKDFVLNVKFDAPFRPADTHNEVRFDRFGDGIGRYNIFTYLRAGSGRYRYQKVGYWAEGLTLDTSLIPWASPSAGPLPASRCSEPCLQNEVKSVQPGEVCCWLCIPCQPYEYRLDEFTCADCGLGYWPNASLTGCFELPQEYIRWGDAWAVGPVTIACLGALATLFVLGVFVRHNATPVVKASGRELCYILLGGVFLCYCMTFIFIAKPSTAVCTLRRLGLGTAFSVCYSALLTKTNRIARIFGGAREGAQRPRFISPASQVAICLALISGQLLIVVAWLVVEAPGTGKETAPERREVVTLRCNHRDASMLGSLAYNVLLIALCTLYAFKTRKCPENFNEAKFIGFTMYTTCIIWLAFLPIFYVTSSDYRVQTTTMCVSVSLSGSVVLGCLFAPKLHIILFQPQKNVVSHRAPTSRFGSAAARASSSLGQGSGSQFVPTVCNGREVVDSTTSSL", "assay": "Concentration required to inhibit mGluR2 receptor"}, "[2]": {"molecular_target": "Metabotropic glutamate receptor 1 (Homo sapiens, UniProt Q13255)", "sequence (Q13255 whole entry)": "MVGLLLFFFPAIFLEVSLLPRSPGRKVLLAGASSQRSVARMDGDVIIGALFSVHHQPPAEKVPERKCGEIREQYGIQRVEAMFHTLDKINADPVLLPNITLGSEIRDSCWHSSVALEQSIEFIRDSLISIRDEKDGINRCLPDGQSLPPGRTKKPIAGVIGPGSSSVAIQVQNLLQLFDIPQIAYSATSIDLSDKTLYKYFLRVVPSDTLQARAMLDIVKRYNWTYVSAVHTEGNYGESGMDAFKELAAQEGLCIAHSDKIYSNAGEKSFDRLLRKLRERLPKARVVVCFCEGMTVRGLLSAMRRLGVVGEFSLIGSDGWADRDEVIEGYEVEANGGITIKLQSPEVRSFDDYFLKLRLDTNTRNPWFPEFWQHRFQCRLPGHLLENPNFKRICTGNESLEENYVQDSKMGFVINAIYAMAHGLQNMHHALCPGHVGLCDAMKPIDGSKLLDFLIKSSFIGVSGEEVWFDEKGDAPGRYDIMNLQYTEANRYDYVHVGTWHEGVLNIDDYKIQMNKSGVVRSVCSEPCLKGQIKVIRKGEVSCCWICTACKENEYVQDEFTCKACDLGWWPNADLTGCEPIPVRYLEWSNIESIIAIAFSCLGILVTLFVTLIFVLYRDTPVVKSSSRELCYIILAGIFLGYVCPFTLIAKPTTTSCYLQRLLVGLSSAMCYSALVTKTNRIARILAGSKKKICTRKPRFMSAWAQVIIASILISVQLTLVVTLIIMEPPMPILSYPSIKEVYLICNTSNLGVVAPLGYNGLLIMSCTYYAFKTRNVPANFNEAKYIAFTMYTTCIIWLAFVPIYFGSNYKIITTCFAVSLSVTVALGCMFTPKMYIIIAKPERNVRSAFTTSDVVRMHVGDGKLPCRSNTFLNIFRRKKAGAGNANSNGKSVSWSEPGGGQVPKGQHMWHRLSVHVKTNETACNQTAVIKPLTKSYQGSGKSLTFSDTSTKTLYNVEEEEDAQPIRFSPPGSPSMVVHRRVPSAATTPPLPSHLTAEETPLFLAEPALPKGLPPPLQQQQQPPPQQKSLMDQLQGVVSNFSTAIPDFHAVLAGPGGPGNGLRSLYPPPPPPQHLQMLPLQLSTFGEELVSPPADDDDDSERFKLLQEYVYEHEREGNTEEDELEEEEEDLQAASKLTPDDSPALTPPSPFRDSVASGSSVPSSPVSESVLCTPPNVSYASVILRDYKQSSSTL", "assay": "Inhibitory activity against mGluR1 receptor"}}}
{"smiles": "N[C@H](C(=O)O)C12C3C4C1C1C2C3C41C(=O)O", "note": "(some centres not stated)", "values": [{"measurement": "EC50", "setting": "[1]", "result": 54.9, "unit": "µM"}, {"measurement": "IC50", "setting": "[2]", "result": 232, "unit": "µM"}]}
